Laboratory results taken from the supplement of paper PMC10307832.

Experiments:
Experiment in all cases: relative viability (nuclei count vs DMSO), 5 days (fraction); higher = more cells survive
[1] = system: NCI-H2087
How it was run: (§1)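 After 5 days of treatment, lung cancer cells in 1536-well plates were fixed and stained in a single step (final 0.05% Triton X-100, 1% formaldehyde, 1 ug/ml Hoechst) and their nuclei counted on 4× images. Treatment had been applied by pin tool the day after seeding as one drug alone or as a fixed anchor-drug dose with five library-drug doses (not always all listed) in √10 steps. Relative viability is the nuclei count of treated wells divided by that of vehicle wells, and values are medians of duplicate plates.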

[2] = system: 201T
How it was run: as §1

[3] = system: NCI-H1437
How it was run: as §1

[4] = system: NCI-H1666
How it was run: as §1

[5] = system: NCI-H2342
How it was run: as §1

[6] = system: LCLC-97TM1
How it was run: as §1

[7] = system: EKVX
How it was run: as §1

[8] = system: EPLC-272H
How it was run: as §1

[9] = system: HCC-827
How it was run: as §1

[10] = system: LOU-NH91
How it was run: as §1

[11] = system: COR-L 105
How it was run: as §1

[12] = system: HCC-44
How it was run: as §1

[13] = system: NCI-H358
How it was run: as §1

[14] = system: LU99A
How it was run: as §1

[15] = system: HOP-62
How it was run: as §1

[16] = system: NCI-H647
How it was run: as §1

[17] = system: NCI-H2085
How it was run: as §1

[18] = system: H3255
How it was run: as §1

[19] = system: NCI-H2126
How it was run: as §1

[20] = system: NCI-H1395
How it was run: as §1

[21] = system: PC-3 [JPC-3]
How it was run: as §1

[22] = system: NCI-H1975
How it was run: as §1

[23] = system: SW 1573
How it was run: as §1

[24] = system: BEN
How it was run: as §1

CC(C)Oc1cc(Nc2nc(N[C@@H](C)c3ccc(F)cn3)ncc2Cl)n[nH]1 [AZ23] + O=C(CCCCCCC(=O)Nc1ccccc1)NO [Vorinostat] (partner 1 µM)
relative viability ([1]; first compound 0.01 µM): 0.969
relative viability ([1]; first compound 0.03162 µM): 0.995
relative viability ([1]; first compound 0.3162 µM): 0.668
relative viability ([2]; first compound 0.01 µM): 1.05
relative viability ([2]; first compound 0.03162 µM): 1.09
relative viability ([2]; first compound 0.3162 µM): 1.08
relative viability ([3]; first compound 0.01 µM): 0.981
relative viability ([3]; first compound 0.03162 µM): 0.929
relative viability ([3]; first compound 0.3162 µM): 0.809
relative viability ([4]; first compound 0.01 µM): 0.859
relative viability ([4]; first compound 0.03162 µM): 0.977
relative viability ([4]; first compound 0.3162 µM): 1.03
relative viability ([5]; first compound 0.01 µM): 0.619
relative viability ([5]; first compound 0.03162 µM): 0.74
relative viability ([5]; first compound 0.3162 µM): 0.686
relative viability ([6]; first compound 0.01 µM): 0.582
relative viability ([6]; first compound 0.03162 µM): 0.885
relative viability ([6]; first compound 0.3162 µM): 0.396
relative viability ([7]; first compound 0.01 µM): 0.811
relative viability ([7]; first compound 0.03162 µM): 0.683
relative viability ([7]; first compound 0.3162 µM): 0.675
relative viability ([8]; first compound 0.03162 µM): 0.543
relative viability ([8]; first compound 0.3162 µM): 0.423
relative viability ([9]; first compound 0.01 µM): 0.964
relative viability ([9]; first compound 0.03162 µM): 0.866
relative viability ([9]; first compound 0.3162 µM): 0.9
relative viability ([10]; first compound 0.01 µM): 0.864
relative viability ([10]; first compound 0.03162 µM): 1.03
relative viability ([10]; first compound 0.3162 µM): 0.964
relative viability ([11]; first compound 0.01 µM): 0.698
relative viability ([11]; first compound 0.03162 µM): 0.799
relative viability ([11]; first compound 0.3162 µM): 0.841
relative viability ([12]; first compound 0.01 µM): 1.14
relative viability ([12]; first compound 0.03162 µM): 1.16
relative viability ([12]; first compound 0.3162 µM): 1.09
relative viability ([13]; first compound 0.01 µM): 0.631
relative viability ([13]; first compound 0.03162 µM): 0.718
relative viability ([13]; first compound 0.3162 µM): 0.758
relative viability ([14]; first compound 0.01 µM): 0.516
relative viability ([14]; first compound 0.03162 µM): 0.6
relative viability ([14]; first compound 0.3162 µM): 0.493
relative viability ([15]; first compound 0.01 µM): 0.527
relative viability ([15]; first compound 0.03162 µM): 0.765
relative viability ([15]; first compound 0.3162 µM): 0.733
relative viability ([16]; first compound 0.01 µM): 0.935
relative viability ([16]; first compound 0.03162 µM): 0.497
relative viability ([16]; first compound 0.3162 µM): 0.591
relative viability ([17]; first compound 0.01 µM): 0.662
relative viability ([17]; first compound 0.03162 µM): 0.88
relative viability ([17]; first compound 0.3162 µM): 0.755
relative viability ([18]; first compound 0.01 µM): 0.737
relative viability ([18]; first compound 0.03162 µM): 0.791
relative viability ([18]; first compound 0.3162 µM): 0.867
relative viability ([19]; first compound 0.01 µM): 0.776
relative viability ([19]; first compound 0.03162 µM): 0.873
relative viability ([19]; first compound 0.3162 µM): 0.616
relative viability ([20]; first compound 0.03162 µM): 0.685
relative viability ([20]; first compound 0.3162 µM): 0.799
relative viability ([21]; first compound 0.01 µM): 0.721
relative viability ([21]; first compound 0.03162 µM): 0.867
relative viability ([21]; first compound 0.3162 µM): 0.826
relative viability ([22]; first compound 0.01 µM): 0.734
relative viability ([22]; first compound 0.03162 µM): 0.738
relative viability ([22]; first compound 0.3162 µM): 0.731
relative viability ([23]; first compound 0.01 µM): 0.963
relative viability ([23]; first compound 0.03162 µM): 0.881
relative viability ([23]; first compound 0.3162 µM): 0.757
relative viability ([24]; first compound 0.01 µM): 0.599
relative viability ([24]; first compound 0.03162 µM): 0.659
relative viability ([24]; first compound 0.3162 µM): 0.597
